These results are taken from patent US20100273205A1, “Magnetic resonance imaging contrast agents” (priority 2005, published 2010).

In this assay the test system is formalin-fixed visual cortex (gray and white matter). In words: LFB relaxation enhancement, inversion-recovery spin-echo and multi-echo spin-echo MR at 14T. Conditions: LFB in 95% ethanol then Li2CO3, versus formalin control. Details: species or system human. As to the method:
Formalin-fixed samples of visual cortex, approximately 1 cm in thickness, were immersed in a mixture of LFB dissolved in a solvent of 95% ethanol (500 mg LFB in 50 ml ethanol) for durations between 48 hours and 3 months. Following LFB staining, the tissue was rinsed in 70% ethanol, rinsed in distilled water, and then immersed in an aqueous solution of lithium carbonate(Li2CO3) (0.25 g Li2CO3 in 500 mL water) until gray-white matter contrast had increased, ranging between approximately 5 minutes and 24 hours. Next, the tissue was rinsed twice more in 70% ethanol and lastly in distilled water. Additional control samples were prepared with 1) formalin only or 2) 95% ethanol followed by immersion in Li2CO3.
Tissue samples were blotted and then immersed in perfluoropolyether (Fomblin, Ausimont USA, Thorofare, N.J.) in a low-pressure environment. […] The low-pressure environment is used to remove artifact-inducing air bubbles from within the tissue.
Data was acquired using a 10 mm birdcage coil in a vertical bore 14T magnet (Magnex Scientific, Oxford, England), with an 89-mm bore and 100 G/cm gradient coil. An inversion-recovery prepared spin-echo sequence and a multi-echo spin-echo sequence were used to determine T1 and T2, respectively. Parameters were estimated in three regions of interest (ROIs), outer gray matter (GMo), inner gray matter (GMi), and white matter (WM), using a nonlinear least-squares fitting routine using the following equations, a:
SIIR−SE=Mo(1−2αe^−TIIT^1)SISE∝Moe^−TEIT^2
where α represents flip angle deviation from 180° and Mo is the equilibrium magnetization.

For Luxol fast blue [LFB], the “decrease of T1 in inner gray matter (GMi)” value came out at 41%, the “decrease of T1 in outer gray matter (GMo)” value was 30% and the “decrease of T1 in white matter (WM)” value is given as 47%.
